The target of assay [1] is T1, human PDE5 (Homo sapiens, UniProt O76074).
T1 construct: from tissue; host or cells: human platelets from fresh donor blood (platelet lysate)
Briefly: Inhibition of PDE5 activity (platelet lysate, SPA assay). Type of assay: biochemical. To be noted: 0.5 μM cGMP, read-out: PDE5 Inhibitory values measured as -logIC50 (converted). In short, it runs like this: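 Human platelet lysate (10,000 g supernatant) served as PDE5 source, with 1 μM motapizone and 10 nM PDE2 inhibitor added, in Tris pH 7.4, 5 mM Mg2+, BSA. Substrate 0.5 μM [3H]cGMP, 10–20% conversion; 5 min preincubation then 15 min at 37 °C, stopped by SPA beads with IBMX. IC50 by non-linear regression.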

Assay [2] addresses T2, PDE4B1 (Homo sapiens, UniProt Q07343).
T2 construct: made in house; host or cells: SF21 insect cells (baculovirus; virus made in SF9 cells, pCR-Bac vector)
Briefly: Inhibition of PDE4 activity (PDE4B1, SPA assay). To be noted: recombinant PDE4B1, 0.5 μM cAMP; read-out: PDE4B1 Inhibitory values measured as -logIC50 (converted). Type of assay: biochemical. Summed up: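 Baculovirus-expressed enzyme from SF21 cell 1000×g supernatant; substrate 0.5 μM [3H]cAMP in 20 mM Tris pH 7.4, 5 mM Mg2+, 0.1 mg/ml BSA, 10-20% conversion. 5 min preincubation at 37 °C, 15 min reaction, stopped by SPA beads with IBMX; IC50 by non-linear regression.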

T2 sequence (Q07343 whole entry): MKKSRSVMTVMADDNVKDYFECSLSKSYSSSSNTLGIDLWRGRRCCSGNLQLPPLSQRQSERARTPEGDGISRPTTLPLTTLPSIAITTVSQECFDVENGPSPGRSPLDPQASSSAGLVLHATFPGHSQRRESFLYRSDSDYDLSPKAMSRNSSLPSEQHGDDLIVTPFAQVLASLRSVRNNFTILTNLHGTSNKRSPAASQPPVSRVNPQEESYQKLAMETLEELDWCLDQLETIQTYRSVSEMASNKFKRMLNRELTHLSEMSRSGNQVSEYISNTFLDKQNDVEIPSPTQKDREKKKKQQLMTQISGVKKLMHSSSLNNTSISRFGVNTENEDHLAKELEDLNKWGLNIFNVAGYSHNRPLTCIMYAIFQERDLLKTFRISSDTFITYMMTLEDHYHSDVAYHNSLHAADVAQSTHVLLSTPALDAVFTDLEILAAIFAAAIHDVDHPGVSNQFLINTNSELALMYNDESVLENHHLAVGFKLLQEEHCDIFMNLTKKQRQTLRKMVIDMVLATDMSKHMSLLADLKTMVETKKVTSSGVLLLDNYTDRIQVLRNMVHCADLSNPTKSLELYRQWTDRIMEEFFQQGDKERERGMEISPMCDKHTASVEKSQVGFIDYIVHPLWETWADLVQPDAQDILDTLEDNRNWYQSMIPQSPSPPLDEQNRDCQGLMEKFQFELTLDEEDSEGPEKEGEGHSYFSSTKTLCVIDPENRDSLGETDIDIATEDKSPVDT

Turning to `COc1ccc(C2=NN(C3CCN(C(=O)[C@@H](Cc4ccccc4Cl)NC(=O)c4c(C)[nH]c5c(-c6c(OCC7CC7)ccc7c6OCO7)ncnc45)CC3)C(=O)[C@@H]3CCCC[C@H]23)cc1OC` [Example 34, N-[(2R)-3-(2-chlorophenyl)-1-{4-[(4aS,8aR)-4-(3,4-dimethoxyphenyl)-1-oxo-4a,5,6,7,8,8a-hexahydrophthalazin-2(1H)-yl]piperidin-1-yl}-1-oxopropan-2-yl]-4-[5-(cyclopropylmethoxy)-1,3-benzodioxol-4-yl]-6-methyl-5H-pyrrolo[3,2-d]pyrimidine-7-carboxamide], the IC50 in assay [1] and in assay [2] was less than 1 nM throughout.
Regarding `COc1ccc(C2=NN(C3CCN(C(=O)[C@@H](Cc4ccccc4Cl)NC(=O)c4c[nH]c5c(-c6c(OCC7CC7)ccc7c6OCO7)ncnc45)CC3)C(=O)[C@@H]3CCCC[C@H]23)cc1OC` [Example 35, N-[(2R)-3-(2-chlorophenyl)-1-{4-[(4aS,8aR)-4-(3,4-dimethoxyphenyl)-1-oxo-4a,5,6,7,8,8a-hexahydrophthalazin-2(1H)-yl]piperidin-1-yl}-1-oxopropan-2-yl]-4-[5-(cyclopropylmethoxy)-1,3-benzodioxol-4-yl]-5H-pyrrolo[3,2-d]pyrimidine-7-carboxamide], the IC50 in assay [1] and in assay [2] was less than 1 nM in each case.
Take `COc1ccc(C2=NN(C3CCN(C(=O)[C@H](Cc4ccccc4)NC(=O)c4c[nH]c5c(-c6c(OCC7CC7)ccc7c6OCO7)ncnc45)CC3)C(=O)[C@@H]3CCCC[C@H]23)cc1OC` [Example 36, 4-[5-(cyclopropylmethoxy)-1,3-benzodioxol-4-yl]-N-[(2S)-1-{4-[(4aS,8aR)-4-(3,4-dimethoxyphenyl)-1-oxo-4a,5,6,7,8,8a-hexahydrophthalazin-2(1H)-yl]piperidin-1-yl}-1-oxo-3-phenylpropan-2-yl]-5H-pyrrolo[3,2-d]pyrimidine-7-carboxamide]: the IC50 in assay [1] and in assay [2] was 1 to 10 nM each time.
As for `COc1cc(OCC2CC2)c(-c2ncnc3c(C(=O)N[C@@H](C(=O)N4CCC(N5N=C(c6ccc(OC)c(OC)c6)[C@H]6CCCC[C@H]6C5=O)CC4)[C@H](C)c4ccccc4)c(C)[nH]c23)cc1F` [Example 37, 4-[2-(cyclopropylmethoxy)-5-fluoro-4-methoxyphenyl]-N-[(2R,3R)-1-{4-[(4aS,8aR)-4-(3,4-dimethoxyphenyl)-1-oxo-4a,5,6,7,8,8a-hexahydrophthalazin-2(1H)-yl]piperidin-1-yl}-1-oxo-3-phenylbutan-2-yl]-6-methyl-5H-pyrrolo[3,2-d]pyrimidine-7-carboxamide], the IC50 in assay [1] and in assay [2] was 1 to 10 nM each time.
For the compound `COc1ccc(C2=NN(C3CCN(C(=O)[C@H](Cc4ccccn4)NC(=O)c4c(C)[nH]c5c(-c6c(OCC7CC7)ccc7c6OCO7)ncnc45)CC3)C(=O)[C@@H]3CCCC[C@H]23)cc1OC` [Example 38, 4-[5-(cyclopropylmethoxy)-1,3-benzodioxol-4-yl]-N-[(2S)-1-{4-[(4aS,8aR)-4-(3,4-dimethoxyphenyl)-1-oxo-4a,5,6,7,8,8a-hexahydrophthalazin-2(1H)-yl]piperidin-1-yl}-1-oxo-3-(pyridin-2-yl)propan-2-yl]-6-methyl-5H-pyrrolo[3,2-d]pyrimidine-7-carboxamide], the IC50 in assay [1] was less than 1 nM; in assay [2], 1 to 10 nM.
On to `COc1ccc(C2=NN(C3CCN(C(=O)[C@H](Cc4ccccn4)NC(=O)c4c[nH]c5c(-c6c(OCC7CC7)ccc7c6OCO7)ncnc45)CC3)C(=O)[C@@H]3CCCC[C@H]23)cc1OC` [Example 39, 4-[5-(cyclopropylmethoxy)-1,3-benzodioxol-4-yl]-N-[(2S)-1-{4-[(4aS,8aR)-4-(3,4-dimethoxyphenyl)-1-oxo-4a,5,6,7,8,8a-hexahydrophthalazin-2(1H)-yl]piperidin-1-yl}-1-oxo-3-(pyridin-2-yl)propan-2-yl]-5H-pyrrolo[3,2-d]pyrimidine-7-carboxamide], for which the IC50 in assay [1] and in assay [2] was less than 1 nM in each case.
